The structures appear in SMILES notation.

In one assay the test system is sweet taste perception. The assay can be described thus: time-intensity test of sweet taste (12 panelists, sample vs reference solution of 2 vol % sucrose, 1 vol % ethanol). It counts as in vivo, human. Conditions: 10 μM. An excerpt: The influence of the sweet taste modulators on the temporal perception of sweetness can be shown by means of time-intensity tests. For time-intensity tests, a reference solution containing 2 vol % sucrose and 1 vol % ethanol in water and sample solutions (i.e., concentration of stock aqueous solutions listed in Table 1 below) containing 2 vol % sucrose and 1 vol % ethanol and the test compound in different concentrations in water were rated on a horizontal, non-structured line scale from 0 (not detectable) to 10 (very strongly detectable). The reference solution served as a baseline for the time-intensity tests upon which the sample solutions were compared for the temporal perception of sweetness. Twelve panelists were asked to rinse their mouths with an aliquot (10 mL) of a solution and immediately start rating solution's sweet taste intensity for a period of 5 seconds. […] The rating results were the averages from the twelve panelists.
FIGS. 7A and 7B illustrate empirical (FIG. 7A) and predictive (FIG. 7B) model time-intensity experiments using the reference solution containing 2 vol % sucrose and 1 vol % ethanol in water and a sample solution containing 50 μM EMF, 2 vol % sucrose and 1 vol % ethanol in water. Time intensity tests enable continuous measurement of the intensity of taste impressions.
After calculating average time intensity (TI) curves using FIZZ biosystems calculations software and determining the TI curves integrated value (i.e., area under the curve), duration, and duration of the increasing and decreasing phase from individual TI curves, the trapezoidal method was applied after extraction of data points at 5% and 95% of the respective maximum intensity on the increasing and decreasing sections of the individual TI curves. The following parameters were extracted for further data analysis: maximum intensity (Imax) of taste perception experienced, total area under the curve (Atotal) 1 (i.e., total amount) of taste perception experienced and total duration (Dtotal) of taste perception experienced. Extracted parameters of sample solutions were normalized on the reference solution from the same evaluation session and a two-way analysis of variance (ANOVA) was conducted.
Table 2 below illustrates an overview of all p-values generated by two-way ANOVA of maximum intensity (Imax), total area under the curve (Atotal) land total duration (Dtotal) for sample solutions containing 5-ethyoxymethylfurfural (EMF), as well as ester of 5-hydroxymethylfurfural and vanillic acid (VanMF), 4-hydrozybenzaldehyde (pHBA), syringic aldehyde (SyA), and sinapic aldehyde (SinA), respectively. P-values (i.e., calculated probabilities) are statistical measures ranging from 0 to 1 which quantify the statistical significance of a data set. In other words, the p-value is a function of the observed sample results (a test statistic) relative to a statistical model, which measures how extreme the observation is. Smaller p-values are indicative of scaling significance. For example, p <0.05 are “significant” (*) (i.e., less than 1 in 20 chance, or 5%, of the data set being erroneous or inaccurate); p <0.01 are “highly significant” (**) (i.e., less than 1 in 100 chance, or 1%, of the data set being erroneous or inaccurate); and, p <0.001 are “very highly significant” (***) (less than 1 in 1000 chance, or 0.1%, of the data set being erroneous or inaccurate). Measured concentrations of EMF, VanMF, pHBA, SyA, and SinA in the sample solutions used in the statistical analysis are 10 μmol/L, 25 μmol/L, and 50 μmol/L, respectively. The p-values in Table 2 below relate to the statistical significance of the Imax, Atotal, and Dtotal values of sample solutions containing EMF, VanMF, pHBA, SyA, and SinA, respectively, in FIGS. 8-12.
As to `CCOCc1ccc(C=O)o1` [EMF, 5-ethoxymethyl-2-furaldehyde], the “increase of Atotal vs reference solution (significance)” value (“increase of Atotal … (significance)” below) is “no significant increases”, the “increase of Dtotal vs reference solution (significance)” value (shortened to “increase of Dtotal … (significance)”) is reported as “no significant increases” and the “increase of Imax vs reference solution (significance)” value (shortened to “increase of Imax … (significance)”) is “no significant increases”.

Consider `COc1cc(/C=C/C=O)cc(OC)c1O` [SinA, sinapic aldehyde], for which the “increase of Atotal … (significance)” value is “significant increases”, the “increase of Dtotal … (significance)” value is listed as “no significant increase” and the “increase of Imax … (significance)” value is listed as “significant increases”.

Regarding `COc1cc(C=O)cc(OC)c1O` [SyA, syringic aldehyde], the “increase of Atotal … (significance)” value is reported as “do not have a significant influence”, the “increase of Dtotal … (significance)” value was “do not have a significant influence” and the “increase of Imax … (significance)” value was “do not have a significant influence”.

In the case of `COc1cc(C(=O)OCc2ccc(C=O)o2)ccc1O` [VanMF, ester of 5-hydroxymethylfurfural and vanillic acid], the “increase of Atotal … (significance)” value is recorded as “** (p <0.01 are “highly significant” (**))”, the “increase of Dtotal … (significance)” value was “** (p <0.01 are “highly significant” (**))” and the “increase of Imax … (significance)” value is “** (p <0.01 are “highly significant” (**))”.

For `O=Cc1ccc(O)cc1` [pHBA, 4-hydrozybenzaldehyde], the “increase of Atotal … (significance)” value is given as “No significant increases”, the “increase of Dtotal … (significance)” value is “No significant increases” and the “increase of Imax … (significance)” value is reported as “No significant increases”.

Staying with this assay, now noted: 25 μM.
Turning to `CCOCc1ccc(C=O)o1` [EMF, 5-ethoxymethyl-2-furaldehyde], the “increase of Atotal … (significance)” value was “no significant increases”, the “increase of Dtotal … (significance)” value was “no significant increases” and the “increase of Imax … (significance)” value is on record as “very highly significant increase”.

On to `COc1cc(/C=C/C=O)cc(OC)c1O` [SinA, sinapic aldehyde], for which the “increase of Atotal … (significance)” value is “significant increases”, the “increase of Dtotal … (significance)” value is “significant increases” and the “increase of Imax … (significance)” value is “significant increases”.

Turning to `COc1cc(C=O)cc(OC)c1O` [SyA, syringic aldehyde], the “increase of Atotal … (significance)” value is listed as “*** (p <0.001 are “very highly significant” (***))”, the “increase of Dtotal … (significance)” value is reported as “* (p <0.05 are “significant” (*))” and the “increase of Imax … (significance)” value is given as “** (p <0.01 are “highly significant” (**))”.

As to `COc1cc(C(=O)OCc2ccc(C=O)o2)ccc1O` [VanMF, ester of 5-hydroxymethylfurfural and vanillic acid], the “increase of Atotal … (significance)” value was “* (p <0.05 are “significant” (*))”, the “increase of Dtotal … (significance)” value is given as “* (p <0.05 are “significant” (*))” and the “increase of Imax … (significance)” value was “** (p <0.01 are “highly significant” (**))”.

Regarding `O=Cc1ccc(O)cc1` [pHBA, 4-hydrozybenzaldehyde], the “increase of Atotal … (significance)” value is “** (p <0.01 are “highly significant” (**))” and the “increase of Imax … (significance)” value is “*** (p <0.001 are “very highly significant” (***))”.

Staying with this assay, now noted: 50 μM.
`CCOCc1ccc(C=O)o1` [EMF, 5-ethoxymethyl-2-furaldehyde]: the “increase of Atotal … (significance)” value is “*** (p <0.001 are “very highly significant” (***))”, the “increase of Dtotal … (significance)” value is reported as “*** (p <0.001 are “very highly significant” (***))” and the “increase of Imax … (significance)” value is “*** (p <0.001 are “very highly significant” (***))”.

For `COc1cc(/C=C/C=O)cc(OC)c1O` [SinA, sinapic aldehyde], the “increase of Atotal … (significance)” value is “significant increases”, the “increase of Dtotal … (significance)” value is on record as “significant increases” and the “increase of Imax … (significance)” value was “significant increases”.

Take `COc1cc(C=O)cc(OC)c1O` [SyA, syringic aldehyde]: the “increase of Atotal … (significance)” value is “** (p <0.01 are “highly significant” (**))” and the “increase of Imax … (significance)” value is reported as “** (p <0.01 are “highly significant” (**))”.

For the compound `COc1cc(C(=O)OCc2ccc(C=O)o2)ccc1O` [VanMF, ester of 5-hydroxymethylfurfural and vanillic acid], the “increase of Atotal … (significance)” value is given as “no significant increases”, the “increase of Dtotal … (significance)” value is listed as “* (p <0.05 are “significant” (*))” and the “increase of Imax … (significance)” value is on record as “no significant increases”.

For `O=Cc1ccc(O)cc1` [pHBA, 4-hydrozybenzaldehyde], the “increase of Atotal … (significance)” value is “** (p <0.01 are “highly significant” (**))”, the “increase of Dtotal … (significance)” value is listed as “** (p <0.01 are “highly significant” (**))” and the “increase of Imax … (significance)” value is listed as “** (p <0.01 are “highly significant” (**))”.

The same assay, now with this note: 50 μM in 2 vol % sucrose, 1 vol % ethanol.
Turning to `CCOCc1ccc(C=O)o1` [EMF, 5-ethoxymethyl-2-furaldehyde], the “total area under the curve (Atotal) compared with reference solution” value was “greater than Atotal for the reference solution”.

The assay is the same for the next values; noted with them: 50 μM in 2 vol % sucrose, 1 vol % ethanol; scale 0 to 10; reference solution about 3.5.
With `CCOCc1ccc(C=O)o1` [EMF, 5-ethoxymethyl-2-furaldehyde], the “maximum intensity (Imax) of sweet taste perception on the intensity scale” value is listed as roughly 5.

Still in this assay, the particulars now being: in 2 vol % sucrose, 1 vol % ethanol.
Consider `CCOCc1ccc(C=O)o1` [EMF, 5-ethoxymethyl-2-furaldehyde], for which the “concentration at which perceived intensity and duration of sweet taste perception are increased” value is “at least 50 μM”.

For the compound `O=Cc1ccc(O)cc1` [pHBA, 4-hydrozybenzaldehyde], the “concentration at which perceived intensity and duration of sweet taste perception are increased” value was determined as 50 µM.

The record behind these values is patent US20180265487A1, “SWEET TASTE MODULATORS” (Altria Client Services LLC, priority 2017, published 2018).
